According to publication PMC5971468, “Small molecules that inhibit the late stage of Munc13-4–dependent secretory granule exocytosis in mast cells” (The Journal of Biological Chemistry, 2018):

Legend:
Munc13-4 [1] = target: T1, Munc13-4 (Homo sapiens, UniProt Q70J99); assay: SNARE-dependent liposome lipid-mixing FRET assay with purified Munc13-4 + Ca2+; liposome flotation binding assay; assay type: biochemical
T1 construct: gene UNC13D; His6-tagged human Munc13-4 protein produced in insect Sf9 cells
T1 sequence (Q70J99 whole entry): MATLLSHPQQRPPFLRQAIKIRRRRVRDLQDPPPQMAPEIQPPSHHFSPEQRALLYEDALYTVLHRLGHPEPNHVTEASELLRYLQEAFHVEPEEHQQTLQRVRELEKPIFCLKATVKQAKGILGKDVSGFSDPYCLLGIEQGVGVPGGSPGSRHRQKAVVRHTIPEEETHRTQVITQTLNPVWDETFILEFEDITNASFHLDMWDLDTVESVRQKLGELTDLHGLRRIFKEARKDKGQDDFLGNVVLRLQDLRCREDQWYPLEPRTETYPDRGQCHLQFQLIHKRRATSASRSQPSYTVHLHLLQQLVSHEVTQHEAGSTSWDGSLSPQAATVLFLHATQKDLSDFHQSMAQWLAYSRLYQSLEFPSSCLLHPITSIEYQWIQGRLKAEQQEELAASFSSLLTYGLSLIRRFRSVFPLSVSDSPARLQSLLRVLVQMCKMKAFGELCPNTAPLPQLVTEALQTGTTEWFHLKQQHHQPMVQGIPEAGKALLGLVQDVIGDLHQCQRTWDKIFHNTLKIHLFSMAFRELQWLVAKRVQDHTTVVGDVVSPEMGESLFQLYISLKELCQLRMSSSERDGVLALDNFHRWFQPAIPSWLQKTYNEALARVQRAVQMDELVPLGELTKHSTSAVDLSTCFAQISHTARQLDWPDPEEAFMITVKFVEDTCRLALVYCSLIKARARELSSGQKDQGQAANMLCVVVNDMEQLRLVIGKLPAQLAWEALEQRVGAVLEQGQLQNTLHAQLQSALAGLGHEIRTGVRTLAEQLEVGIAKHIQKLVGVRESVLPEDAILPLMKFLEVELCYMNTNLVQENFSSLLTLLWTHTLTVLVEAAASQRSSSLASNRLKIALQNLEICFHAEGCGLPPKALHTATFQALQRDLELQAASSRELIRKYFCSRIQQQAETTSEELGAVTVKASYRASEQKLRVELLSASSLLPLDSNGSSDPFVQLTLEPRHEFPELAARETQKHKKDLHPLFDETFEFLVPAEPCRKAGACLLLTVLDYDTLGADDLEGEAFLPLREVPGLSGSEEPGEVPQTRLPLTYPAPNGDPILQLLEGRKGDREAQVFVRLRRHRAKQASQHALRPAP
T1 sequence (P32851 whole entry partner): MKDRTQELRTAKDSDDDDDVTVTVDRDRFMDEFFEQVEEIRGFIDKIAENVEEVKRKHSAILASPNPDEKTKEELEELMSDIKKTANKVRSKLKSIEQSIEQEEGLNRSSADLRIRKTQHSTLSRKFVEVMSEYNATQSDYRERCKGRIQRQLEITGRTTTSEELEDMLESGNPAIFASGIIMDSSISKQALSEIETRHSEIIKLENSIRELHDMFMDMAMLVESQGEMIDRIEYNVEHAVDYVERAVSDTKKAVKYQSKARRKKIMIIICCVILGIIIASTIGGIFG
T1 sequence (P60879 whole entry partner): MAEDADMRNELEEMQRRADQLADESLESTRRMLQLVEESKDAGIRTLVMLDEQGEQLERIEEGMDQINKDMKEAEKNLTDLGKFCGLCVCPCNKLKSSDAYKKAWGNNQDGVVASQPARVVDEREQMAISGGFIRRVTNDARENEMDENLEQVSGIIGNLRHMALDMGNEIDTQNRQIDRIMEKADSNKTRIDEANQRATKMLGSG
T1 sequence (P63044 2-116 partner): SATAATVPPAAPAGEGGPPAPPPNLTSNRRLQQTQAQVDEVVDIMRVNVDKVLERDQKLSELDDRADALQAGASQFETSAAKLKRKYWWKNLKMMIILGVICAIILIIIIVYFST

Munc13-4 [2] = target: T1, Munc13-4; assay: SNARE-dependent liposome lipid-mixing FRET assay with purified Munc13-4 + Ca2+; assay type: biochemical

| IC50 (Munc13-4 [1]) [µM] | IC50 (Munc13-4 [2]) [µM] | Compound |
| --- | --- | --- |
| ~5 |  | CCn1nc(C(=O)N(CCCN(C)C)c2nc3c(C)ccc(Cl)c3s2)cc1C [bexin-1] |
|  | ~5 | COc1ccc2sc(N(CCCN(C)C)C(=O)c3ccc(S(=O)(=O)N4CCCc5ccccc54)cc3)nc2c1 [bexin-3] |
